From patent publication US7410553B2, “Building construction felt paper with biocide/anti-microbial treatment” (Atlas Roofing Corporation, priority 2005, dated 2008)
Read-outs that look alike come from different tables or passages of the source. Marks after values point to notes of the source that are not given here.

Experiments:
[1] = by one of California's hazardous materials watchdog organizations; NIOSH does not draw that conclusion; cited from earlier work
[2] = system: Cladosporium cladosporioides; assay: Agar-Plate Test Method (modified ASTM G-21), radial mycelial growth on biocide-containing agar; type: cell-based
Protocol: (§1) Five biocides were chosen for a comparative evaluation for inhibition activity against three common mold fungi. The evaluation was performed at the Forest Research Labs of Mississippi State University in Starkville, Miss. (“MSU”) using a substantially modified version of ASTM G-21, termed the “The Agar-Plate Test Method”. This method provides a rapid screening test for the evaluation of biocides against a wide variety of microorganisms.
(§2) Five (5) biocide compositions (“biocides”) were evaluated using the Agar-Plate Test Method: (1) Microbe Shield, (2) Zinc Pyrithione (ZPT), (3) ortho-Phenyl Phenol, (4) Borogard ZB, and (5) a mixture evaluated of 50% Zinc Pyrithione with 50% Borogard ZB. These biocide compositions were added to autoclaved fungal media at different concentrations. […] Plugs of specific fungi were inoculated onto agar plates containing the different biocides/concentrations.
(§3) For terminology, “hypha” (singular) and “hyphae” (plural) is/are a loose network of delicate filaments in a fungus. […] (plus the adjective form “mycelial”) is/are the main part of fungus, consisting of the feeding and reproducing hyphae, that forms the body of a fungus. Radial growth of a mycelia is measured and plotted against concentration. A linear regression is run to estimate the biocide concentration that inhibits radial growth by 50%. This Inhibitory Concentration is called the IC50.
(§4) The five (5) different biocides that were involved in the comparative evaluations were tested at four (4) concentrations per biocide composition, plus a control (no biocide). The biocides were tested against three common mold fungi (Aspergillus niger, Cladosporium cladosporioides, and Penicillium funiculosum) with five (5) replicates for every treatment combination. The biocides that were tested and their concentrations were (1) Microbe Shield at 0, 3, 15, 75 and 375 ppm (“Parts Per Million”) ai (“Active Ingredient”); (2) Zinc Pyrithione at 0, 3, 15, 75 and 375 ppm ai; (3) ortho-Phenyl Phenol (“OPP”) at 0, 3, 15, 75 and 375 ppm ai; (4) Borogard ZB at 0, 10, 50, 250, and 1250 ppm ai; and (5) the 50:50 mixture of Zinc Pyrithione and Borogard ZB at 0, 1.5/5.0, 7.5/25, 37.5/125, and 187.5/625 ppm ai.
(§5) Stock concentrations of each biocide were dissolved or suspended in water or acetone (only OPP was dissolved in acetone) to a concentration that allowed 1 ml of stock to be added to 250 ml of media in order to provide the highest required biocide concentration. Stocks were diluted in a 5 fold series to match the concentrations required. For each biocide concentration, 250 ml of Sabouraund Dextrose Agar in water was autoclaved and then cooled to 50° C. Then 1 ml of the appropriate biocide concentration was added to each flask. Control flasks received 1 ml of water or acetone (for OPP). Media was mixed, dispensed into Petri dishes and allowed to cool. Each biocide test used 90 agar plates including controls.
(§6) A […] plug of agar was removed from every plate at the time of each study. A plug from an agar plate containing one of the fungi was inserted into the hole. The plug of fungi was taken from the leading edge of a fungal colony. Several plates of fungi were required for each study. The studies were grouped by fungi. The Cladosporium cladosporioides study began first; the Aspergillus niger study began next; and the Penicillium funiculosum study began last. Mycelial growth was measured for every plate in each study. Fast growing species were measured daily and slower growing species were measured every 2-3 days. All studies were carried for at least two weeks or until growth leveled out. Digital photographs were taken at different times during each fungal study.
(§7) The average for the five replicates of each biocide concentration was determined and the averages plotted as growth over time for each biocide.

Aspergillus niger = assay: as above; type: cell-based; conditions: for IC50 (ppm) Aspergillus niger: linear regression of radial growth
Protocol: as §1, §2, §3, §4, §5, §6, §7

Penicillium funiculosum = assay: as above; type: cell-based
Protocol: as §1, §2, §3, §4, §5, §6, §7

other molds = system: other molds
Description: (§8) As mentioned above, the example apparatus of FIG. 1 and any suitable biocide can be used for treating a nonwoven mat. Such biocides include but are not limited to those mentioned and evaluated, e.g., ZPT (zinc pyrithione), OPP (ortho-Phenyl Phenol), and Microbe Shield. […] A large number of differing levels of treatment were made and samples of each dosage rate retained.
(§9) In order to establish a range of dosage levels that might quantify their effectiveness, four (4) dosage levels were utilized: (a) 62-grams/MSF; (2) 86-grams/MSF; (3) 116-grams/MSF, and (4) 123-grams/MSF; plus a zero grams/MSF(0) control. The unit of measure: “per MSF” or per “Thousand Square Feet”, rather than a unit of weight; e.g., “per Ton”, is the most common unit of sale for many special nonwoven webs.
(§10) After the biocide was applied to the nonwoven web at the varying dosage levels, two different testing facilities were used to evaluate these samples: The Forest Research Labs of Mississippi State University (MSU), and the laboratory of Arch Chemicals, Inc. (“Arch”). MSU evaluated the treated samples for resistance to mold using testing procedures of, e.g., ASTM D 6329-98, “Standard Guide for Developing Methodology for Evaluating the Ability of Indoor Materials to Support Microbial Growth Using Static Environmental Chambers,” and Arch Chemicals utilized ASTM G 21-96 (Re-approved 2002), “Standard Practice for Determining Resistance of Synthetic Polymeric Materials to Fungi”, both from ASTM International, PA, USA.
(§11) The MSU testing used the fungus Stachybotrys chartarum, but allowed “other molds” to enter the chamber. The Stachybotrys chartarum (ATCC 9182) was grown on Potato Dextrose Agar (“PDA”) and Sabouraud Dextrose Agar and allowed to sporulate (i.e., produce spores). This procedure followed ASTM C 1338-00, Standard Test Method for Determining Fungi Resistance of Insulation Materials and Facings. ASTM International, PA., USA. The solution was adjusted with additional sterile water until a spore count of approximately 940,000 cells per ml was obtained. This solution was the inoculum. A portion of this solution was also plated onto PDA to confirm the viable cell count. In the test, the nonwoven felt pieces were laid out with their treated side up, and inoculated with the spore suspension by an atomizer (ASTM C 1338-00). The pieces were allowed to air dry for several hours before being placed into the static environmental chambers. There were five replicates for each sample set (62-grams/MSF; 86-grams/MSF; 116-grams/MSF, and 123-grams/MSF; plus a zero (0) control) for each sampling period (2 weeks, 4 weeks, and 6 weeks).
(§12) The numbers in Table 3 are in colony forming units (CFUs), a well known standard of measure prescribed, e.g., by ASTM 6329-98.

[3] = system: Stachybotrys chartarum (ATCC 9182)
Description: as §8, §9, §10, §11, §12

[4] = ppm ai in agar, linear regression of radial growth
[5] = ppm ai in agar, totally inhibits fungal growth
[6] = nonwoven felt with 62-g/MSF ZPT, Week Number 2
[7] = nonwoven felt with 62-g/MSF ZPT, Week Number 4
[8] = nonwoven felt with 62-g/MSF ZPT, Week Number 6
[9] = nonwoven felt with 86-g/MSF ZPT, Week Number 2
[10] = nonwoven felt with 86-g/MSF ZPT, Week Number 4
[11] = nonwoven felt with 86-g/MSF ZPT, Week Number 6
[12] = nonwoven felt with 116-g/MSF ZPT, Week Number 2
[13] = nonwoven felt with 116-g/MSF ZPT, Week Number 4
[14] = nonwoven felt with 116-g/MSF ZPT, Week Number 6
[15] = nonwoven felt with 123-g/MSF ZPT, Week Number 2
[16] = nonwoven felt with 123-g/MSF ZPT, Week Number 4
[17] = nonwoven felt with 123-g/MSF ZPT, Week Number 6
[18] = concluded from Table 3 and Table 4
[19] = footnote a: extrapolation outside of the test concentration range

Molecule: Oc1ccccc1-c1ccccc1 [OPP, ortho-Phenyl Phenol]
- carcinogenicity rating [1]: human carcinogen
- MIC ([2]; Cladosporium cladosporioides, read-out: MIC (ppm) Cladosporium cladosporioides): ≤ 375 µg/mL
- IC50 (ppm) Cladosporium cladosporioides [2, 4]: ≤ 203.8^b ppm
- MIC (Aspergillus niger; Aspergillus niger, read-out: MIC (ppm) Aspergillus niger): 84.5 µg/mL
- IC50 (ppm) Aspergillus niger (Aspergillus niger; ppm ai in agar): 16.3 ppm
- MIC (Penicillium funiculosum; Talaromyces funiculosus, read-out: MIC (ppm) Penicillium Funiculosum): ≤ 375 µg/mL
- IC50 (ppm) Penicillium Funiculosum (Penicillium funiculosum; [4]): ≤ 212.6^b ppm

Molecule: zinc pyrithione [Zn Pyrithione]
- IC50 (ppm) Cladosporium cladosporioides [2, 4]: ≤ 1.8^b ppm
- MIC (ppm) Cladosporium cladosporioides [2, 5]: ≤ 15^b ppm
- IC50 (ppm) Aspergillus niger (Aspergillus niger; ppm ai in agar): 9.2 ppm
- MIC (ppm) Aspergillus niger (Aspergillus niger; [5]): 21.2 ppm
- IC50 (ppm) Penicillium Funiculosum (Penicillium funiculosum; [4]): 8.0 ppm
- MIC (ppm) Penicillium Funiculosum (Penicillium funiculosum; [5]): 16.2 ppm
- Other Mold colony forming units (other molds; [6]): 880 CFUs
- Other Mold colony forming units (other molds; [7]): 3360 CFUs
- Other Mold colony forming units (other molds; [8]): 19730 CFUs
- Other Mold colony forming units (other molds; [9]): 530 CFUs
- Other Mold colony forming units (other molds; [10]): 3450 CFUs
- Other Mold colony forming units (other molds; [11]): 4100 CFUs
- Other Mold colony forming units (other molds; [12]): 67 CFUs
- Other Mold colony forming units (other molds; [13]): 125 CFUs
- Other Mold colony forming units (other molds; [14]): 7540 CFUs
- Other Mold colony forming units (other molds; [15]): 0 CFUs
- Other Mold colony forming units (other molds; [16]): 54 CFUs
- Other Mold colony forming units (other molds; [17]): 5380 CFUs
- mold growth in the MSU test ([3]; biocide dose of 62-grams ZPT per MSF): mold DOES grow
- amount of biocide at which mold resistance is optimum [3, 18]: ≥ 100 grams per MSF (per side)
- amount of biocide at which significant mold resistance is imparted [3, 18]: ≥ 50 grams per MSF per side
- Stachybotrys colony forming units [3, 6]: 0 CFUs
- Stachybotrys colony forming units [3, 7]: 680 CFUs
- Stachybotrys colony forming units [3, 8]: 3710 CFUs
- Stachybotrys colony forming units [3, 9]: 0 CFUs
- Stachybotrys colony forming units [3, 10]: 390 CFUs
- Stachybotrys colony forming units [3, 11]: 1110 CFUs
- Stachybotrys colony forming units [3, 12]: 0 CFUs
- Stachybotrys colony forming units [3, 13]: 0 CFUs
- Stachybotrys colony forming units [3, 14]: 0.2 CFUs
- Stachybotrys colony forming units [3, 15]: 0 CFUs
- Stachybotrys colony forming units [3, 16]: 0.4 CFUs
- Stachybotrys colony forming units [3, 17]: 0 CFUs

Molecule: CCCCCCCCCCCCCCCCCC[N+](C)(C)CCC[Si](OC)(OC)OC.[Cl-] [Microbe Shield, 3-trimethixysilylpropyldimethyloctadecyl ammonium chloride]
- IC50 (ppm) Cladosporium cladosporioides [2, 19]: 2025^a ppm
- MIC (ppm) Cladosporium cladosporioides [2, 19]: 5575^a ppm
- MIC (ppm) Aspergillus niger (Aspergillus niger; [19]): 625^a ppm
- IC50 (ppm) Aspergillus niger (Aspergillus niger; ppm ai in agar): 286 ppm
- IC50 (ppm) Penicillium Funiculosum (Penicillium funiculosum; [19]): 670^a ppm
- MIC (ppm) Penicillium Funiculosum (Penicillium funiculosum; [19]): 1289^a ppm
